Experiments:
human hepatocytes [1] = test: In vitro metabolism identification study in human hepatocytes; settings: for Relative Proportion of compounds identified: 5-MeO-DMT free base incubated up to 120 minutes at 10 μM; for Presence in subsequent assays: metabolites of 5-MeO-DMT
Method: For incubations with cryopreserved hepatocytes, the 2 mM stock solution was diluted with Leibovitz L-15 medium to a concentration of 20 μM or 2 μM. An aliquot (250 μL) of the 20 μM and 2 μM test substance formulations was added to each hepatocyte incubation sample (250 μL), as appropriate, so that the final test substance concentration in the incubations was 10 μM or 1 μM, respectively, and incubations contained less than 1% (v/v) solvent.
Incubations were performed at ca. 37° C. in a shaking water bath (total incubation volume 0.5 mL). For 1 μM, incubations were terminated after 0, 5, 10, 20, 30, 60 and 120 minutes, by the addition of ice-cold acetonitrile (0.5 mL).
The samples were vortex mixed and centrifuged at ca 13,000 rpm for 10 minutes at room temperature. Following centrifugation, the protein-free supernatants were removed for analysis.
Blank control incubations were carried out with Leibovitz L-15 medium in place of the test substance. No cells control samples were performed with Leibovitz L-15 medium in place of hepatocytes. Aliquots of the blank control samples were taken at 120 minutes, while no cells control samples were taken at 0, 30 and 120 for 1 μM incubations and at 0 and 120 minutes for 10 μM incubations.
All 1 μM incubations were performed in duplicate, while all 10 μM incubations were performed in singlet. All samples were stored at −80° C. (nominal) prior to analysis.
Prior to sample analysis a 100 μL aliquot of each sample was evaporated to near dryness under a steady stream of nitrogen at room temperature, and subsequently reconstituted in 50 μL of mobile phase A (0.1% formic acid in water). Each sample (0, 30 and 120-minute, 10 μM) was analysed using accurate mass LC-MS to determine relative levels of parent compound at each time-point, and determine the profile of metabolites formed. Appropriate blank and control samples were also analysed. The 10 and 60-minute, 10 μM incubation samples were not analysed and were stored at −80° C. (nominal).
Data were interrogated for the presence of metabolites by comparison of retention times with the test substance reference standard and based on the accurate masses of potential metabolites using screening software (UNIFI version 1.9.4), and user defined search parameters. To confirm a suspected metabolite, the measured accurate mass of the peak detected in the sample used for structural elucidation had to be within 5 ppm of the theoretical mass in order to confirm the molecular formula.

human plasma protein = test: Plasma binding of 5-MIAA; format: in vitro ADME
Method: Binding to human plasma protein was determined. Reported are the unbound fraction (fu) for three replicates as well as the mean unbound fraction, the standard deviation and the mean % recovery (Table 8).

human hepatocytes [2] = test: Metabolic stability in Hμrel co-culture assay with human hepatocytes; settings: for Disappearance with stromal cell controls: stromal cells
[3] = Pharmacokinetics of 5-MeO-DMT and bufotenine after inhalation; format: in vivo, human
Method: Blood samples were obtained at 1; 2; 4; 7; 10; 15; 20; 30; 45 min and 1; 1.5; 2; 3; 4 hours after administration.
PK parameters were generated by algebraic analysis of the concentration versus time plots for each individual. The analysis was carried out using the software Phoenix WinNonlin 6.3.

With `COc1ccc2[nH]cc(CC(=O)O)c2c1` [5-MIAA, 5-methoxyindole-3-acetic acid] the “Relative Proportion of compounds identified” value (“Relative Proportion” below) (human hepatocytes [1]) was 61%, the “Presence in subsequent assays” value (human hepatocytes [1]) was “predominant metabolite” and the “Plasma binding (mean fraction unbound)” value (human plasma protein) was about 50%. For the same compound, the “Unbound fraction (fu)” value (human plasma protein; Replicate 1) was 0.499, the “Unbound fraction (fu)” value (human plasma protein; Replicate 2) was 0.462 and the “Unbound fraction (fu)” value (human plasma protein; Replicate 3) was 0.544. For the same compound, the “Time until all traces are removed from circulation for urinary excretion” value (human plasma protein; assuming glomerular filtration rate of 90-120 ml/min) was 1 to 2 h, the Mean fu (human plasma protein; three replicates) was 0.502 and the Half-life (human hepatocytes [2]; human hepatocytes, 1 μM) was 15 400 min. For the same compound, the “In vitro intrinsic clearance” value (human hepatocytes [2]; human hepatocytes, 1 μM) was 0.15 μl/min/million cells and the “Disappearance with stromal cell controls” value (human hepatocytes [2]) was “no disappearance”.

With `COc1ccc2[nH]cc(CC[N+](C)(C)[O-])c2c1` [5-MeO-DMT-N-oxide] the “Relative Proportion” value (human hepatocytes [1]) was 1%.

For `COc1ccc2[nH]cc(CCO)c2c1` [5-methoxytryptophol, 5-Methoxyindole-3-ethanol], the “Relative Proportion” value (human hepatocytes [1]) was 25%, the “Presence in subsequent assays” value (human hepatocytes [1]) was “repeatedly failed to detect the presence” and the “Time to complete disappearance” value (human hepatocytes [2]; in the presence of hepatocytes) was 24 h. The “Disappearance with stromal cell controls” value (human hepatocytes [2]) was “no disappearance”.

With `CN(C)CCc1c[nH]c2ccc(O)cc12` [bufotenine] the “Relative Proportion” value (human hepatocytes [1]) was 5%, the “Detection in human serum” value ([3]; after administration of 5-MeO-DMT) was “barely detected” and the Bufotenine blood concentration ([3]; from 15 min onwards after 5-MeO-DMT, LLOQ) was under 25 pg/mL.

With `CC(=O)CC(c1ccccc1)c1c(O)c2ccccc2oc1=O` (stereo not shown) [Warfarin, reference compound] the “Unbound fraction (fu)” value (human plasma protein; Replicate 1) was 0.0418, the “Unbound fraction (fu)” value (human plasma protein; Replicate 2) was 0.0356 and the “Unbound fraction (fu)” value (human plasma protein; Replicate 3) was 0.0358.
